The values that follow come from ChEMBL document CHEMBL1141815, “KR025, a new cytotoxic compound from Myxococcus fulvus” (J Nat Prod, 1999).

Values after ≈ are worked out from the molar mass of the structure shown.

Common to all, as to format: functional, cell-based
One assay has as its system A549. Nature of the assay: Cytotoxicity against human A549 cells after 72 hrs by SRB assay. To be noted: A549, 72 h. (Sulforhodamine B stains cellular protein and so reports cell mass.)
Another assay has as its system XF498. Nature of the assay: Cytotoxicity against human XF498 cells after 72 hrs by SRB assay. To be noted: XF498, 72 h.
The next assay has as its system SK-OV-3. Nature of the assay: Cytotoxicity against human SKOV3 cells after 72 hrs by SRB assay. To be noted: SK-OV-3, 72 h.
The test system of the next assay is SK-MEL-2. Nature of the assay: Cytotoxicity against human SK-MEL-2 cells after 72 hrs by SRB assay. As to conditions: SK-MEL-2, 72 h.
The next assay relates to HCT-15. As to the kind of experiment: Cytotoxicity against human HCT-15 cells after 72 hrs by SRB assay. To be noted: HCT-15, 72 h.

What is called IC50 is the concentration that gives 50% inhibition. Higher therefore signals lower potency. Consider `COC(=O)/C=C(/OC)[C@H](C)[C@H](/C=C/c1csc(-c2cnc([C@@H](C)/C=C/C=C/C(C)C)s2)n1)OC`, for which the IC50 with A549 is 0.02 ng/mL (≈ 0.0398 nM); with XF498 it was 0.03 ng/mL (≈ 0.0597 nM); in the assay with SK-OV-3 it was 0.04 ng/mL (≈ 0.0796 nM); in the assay on SK-MEL-2, 8.5 ng/mL (≈ 16.9 nM); with HCT-15, 0.06 ng/mL (≈ 0.119 nM).
For the compound `CCCCCC[C@H]1C(=O)O[C@H](C)[C@H](NC(=O)c2cccc(NC=O)c2O)C(=O)O[C@@H](C)[C@@H]1OC(=O)CC(C)C` [ANTIMYCIN A], the IC50 with A549 is 480 ng/mL (≈ 875 nM); in the assay with XF498, 390 ng/mL (≈ 711 nM); with SK-OV-3, 5500 ng/mL (≈ 10000 nM); in the assay on SK-MEL-2 it was 270 ng/mL (≈ 492 nM); with HCT-15, 410 ng/mL (≈ 747 nM).
Regarding `CO/C(=C/C(N)=O)[C@H](C)[C@H](/C=C/c1csc(-c2csc([C@@H](C)/C=C/C=C/C(C)C)n2)n1)OC` [MYXOTHIAZOL], the IC50 was determined as 0.01 ng/mL (≈ 0.0205 nM) in the assay with A549; 0.03 ng/mL (≈ 0.0615 nM) in the assay on XF498; 0.01 ng/mL (≈ 0.0205 nM) in the assay with SK-OV-3; 9.7 ng/mL (≈ 19.9 nM) with SK-MEL-2; 0.03 ng/mL (≈ 0.0615 nM) in the assay on HCT-15.
